The test system of assay [1] is complement serum (guinea pig complement). The assay can be described thus: Anticomplementary activity (inhibition of hemolysis of sensitized erythrocytes). The class given is biochemical. To be noted: 50% hemolysis inhibition, 37° C. The procedure:
The anticomplementary activity of the test compound was measured according to the test method as described in Experimental Immunochemistry, edited by E. A. Kabat and M. M. Mayer, 2nd ed., Springfield, III: C. C. Thomas (1961) pages 133-240.
A mixture of 1 ml of a 5-fold diluted solution of a Veronal buffer solution containing 1.5×10^-4 M Ca^2+ and 5×10^-4 M Mg^2+ and isotonic gelatin, 1.5 ml of complement serum (guinea pig complement) diluted 400 times with a physiological saline solution and 0.05 ml of a solution of a test compound (in this case, a test compound was dissolved in a physiological saline solution) was incubated at 37° C. for 30 minutes. To the said mixture there was added 0.4 ml of sensitized erythrocytes suspension containing 5×10^8 cells/ml and said mixture was incubated at 37° C. further for 60 minutes. After the incubation, the mixture was centrifuged in 3,000 rpm at 4° C. for 10 minutes.
The results are expressed in Table 1 as the concentration of each drugs inhibiting the hemolysis activity by 50% (IC50).

Assay [2] has as its system blood clot (fresh rabbit blood, urokinase, bovine thrombin). The assay can be described thus: Fibrinolytic activity (modified diluted whole blood clot lysis time method). The class given is biochemical. Particulars: 50 μl of test compound (300 μg/ml), 37° C. Here is the method: The enhancement of the fibrinolytic activity of the test compounds was measured according to the modified diluted whole blood clot lysis time method described in
G. R. Fearnley, G. V. Balmforth, E. Fearnley: Clin. Sci. 16, 645-650 (1957)
I. S. Chohan et al: Thrombos. Diathes. Haemorrh. 33, 226 (1975) and
I. M. Nilsson et al: Handbook of Experimental Pharmacology 46, 110
Fresh rabbit blood was diluted 20 times with 1/15 M phosphate buffer (pH 7.4). A mixture of 400 μl of the diluted blood solution and 50 μl of a test compound (300 μg/ml) was incubated at 37° C. for 30 minutes. To the mixture were added 50 μl of urokinase solution (100 IU/ml) and 50 μl of bovine thrombin (100 N.I.H. u/ml). The clot produced in tubes was incubated at 37° C. for various periods of time. At the end of each incubation interval (15 minutes interval), 2.5 ml of distilled water was added to lyse erythrocytes released from clotted blood and absorbance (OD541) of the supernatant separated by centrifugation (3,000 rpm for 10 minutes) from the reaction mixture was measured. The fibrinolytic activity of the test compound was determined by the time in minutes needed for the complete lysis of the blood clot.
In the absence of a test compound, it took more than 2 hours to lyse blood clot in the above condition. However, blood clot was lysed in the presence of test compounds after 15 minutes (symbol: ++) and 45 minutes (symbol: +) incubation, respectively. Samples which were incapable of lysing blood clot within 1 hour incubation were expressed as symbol (-).

In the case of `CCCCCCCCCCCCCCCC(=O)OC(CCCCCCCCCCCCCC)C(=O)NCCC(=O)N[C@H](C(=O)O)[C@@H](C)O` (stereo partly drawn) [Example 36, N-[N-(2-hexadecanoyloxyhexadecanoyl)-β-alanyl]-L-threonine], in assay [1], the “Anticomplementary Activity (IC50)” value was 0.08 µg/mL. Also, the “Fibrinolytic Activity (time needed for complete lysis of the blood clot)” value (“Fibrinolytic Activity” below) in assay [2] is “+ (45 minutes (symbol: +) incubation)”.

As for `CCCCCCCCCCCCCCCC(=O)OC(CCCCCCCCCCCCCCC)CC(=O)N[C@@H](C)C(=O)N[C@H](C(=O)O)[C@@H](C)O` (stereo partly drawn) [Example 14, N-[N-(3-hexadecanoyloxyoctadecanoyl)-L-alanyl]-L-threonine], the “Anticomplementary Activity (IC50)” value in assay [1] came to 0.23 µg/mL.

On to `CCCCCCCCCCCCCCCC(=O)OC(CCCCCCCCCCCCCC)C(=O)NCC(=O)N[C@@H](CO)C(=O)O` (stereo partly drawn) [Example 35, N-[N-(2-hexadecanoyloxyhexadecanoyl)glycyl]-L-serine], for which the “Anticomplementary Activity (IC50)” value in assay [1] amounted to 0.03 µg/mL. Also, the “Fibrinolytic Activity” value in assay [2] is reported as “+ (45 minutes (symbol: +) incubation)”.

In the case of `CC(C)CCCCCCCCCCCC(=O)OC(CCCCCCCCCCCC(C)C)CC(=O)NCC(=O)O` (stereo not drawn) [Example 19, N-[15-methyl-3-(13-methyltetradecanoyloxy)hexadecanoyl]glycine], the “Anticomplementary Activity (IC50)” value in assay [1] was determined as 4.0 µg/mL. In addition, in assay [2], the “Fibrinolytic Activity” value is “+ (45 minutes (symbol: +) incubation)”.

As for `CC(C)CCCCCCCCCCCC(=O)OC(CCCCCCCCCCCC(C)C)CC(=O)N[C@@H](CO)C(=O)O` (stereo partly drawn) [Example 20, N-[15-methyl-3-(13-methyltetradecanoyloxy)hexadecanoyl]-L-serine], in assay [1], the “Anticomplementary Activity (IC50)” value was found to be 2.8 µg/mL. In assay [2], the “Fibrinolytic Activity” value was “+ (45 minutes (symbol: +) incubation)”.

In the case of `CCCCCCCCCCCCCCCC(=O)OC(CCCCCCCCCCCCCCC)CC(=O)NCC(=O)O` (stereo not drawn) [Example 27, N-(3-hexadecanoyloxyoctadecanoyl)glycine], the “Anticomplementary Activity (IC50)” value in assay [1] turned out to be 0.44 µg/mL. For the same compound, in assay [2], the “Fibrinolytic Activity” value is listed as “+ (45 minutes (symbol: +) incubation)”.

`CCCCCCCCCCCCCCCC(=O)OC(CCCCCCCCCCCCCCC)CC(=O)NCCCCC(=O)N[C@H](C(=O)O)[C@@H](C)O` (stereo partly drawn) [Example 34, N-[5-(3-hexadecanoyloxyoctadecanoyl)aminovaleryl]-L-threonine]: the “Anticomplementary Activity (IC50)” value in assay [1] was determined as 0.02 µg/mL. For the same compound, in assay [2], the “Fibrinolytic Activity” value was “+ (45 minutes (symbol: +) incubation)”.

As to `CC(C)CCCCCCCCCCCC(=O)OC(CCCCCCCCCCCC(C)C)CC(=O)NCCC(=O)N[C@H](C(=O)O)[C@@H](C)O` (stereo partly drawn) [Example 8, N-[N-[15-methyl-3-(13-methyltetradecanoyloxy)hexadecanoyl]-β-alanyl]-L-threonine], the “Anticomplementary Activity (IC50)” value in assay [1] lay in the range of 0.04 to 0.06 µg/mL.

For the compound `CC(C)CCCCCCCCCCCC(=O)OC(CCCCCCCCCCCC(C)C)CC(=O)NCC(=O)N[C@@H](Cc1ccccc1)C(=O)O` (stereo partly drawn) [Example 15, N-[N-[15-methyl-3-(13-methyltetradecanoyloxy)hexadecanoyl]glycyl]-L-phenyl alanine], the “Anticomplementary Activity (IC50)” value in assay [1] was 2.8 µg/mL. In addition, in assay [2], the “Fibrinolytic Activity” value is “++ (blood clot was lysed in the presence of test compounds after 15 minutes (symbol: ++))”.

As to `CC(C)CCCCCCCCCCCC(=O)OC(CCCCCCCCCCCC(C)C)CC(=O)N[C@@H](C)C(=O)N[C@H](C(=O)O)[C@@H](C)O` (stereo partly drawn) [Example 13, N-[N-[15-methyl-3-(13-methyltetradecanoyloxy)hexadecanoyl]-L-alanyl]-L-thr eonine], the “Anticomplementary Activity (IC50)” value in assay [1] was determined as 0.72 µg/mL.

Turning to `CC(C)CCCCCCCCCCCC(=O)OC(CCCCCCCCCCCC(C)C)CC(=O)NCCC(=O)N[C@@H](Cc1c[nH]cn1)C(=O)O` (stereo partly drawn) [Example 16, N-[N-[15-methyl-3-(13-methyltetradecanoyloxy)hexadecanoyl]-β-alanyl]-L-histidine], in assay [1], the “Anticomplementary Activity (IC50)” value is 4.2 µg/mL.

In the case of `CCCCCCCCCCCCCCCC(=O)OC(CCCCCCCCCCCCCCC)CC(=O)NCC(=O)N[C@@H](Cc1c[nH]c2ccccc12)C(=O)O` (stereo partly drawn) [Example 43, N-[N-(3-hexadecanoyloxyoctadecanoyl)glycyl]-L-tryptophan], in assay [1], the “Anticomplementary Activity (IC50)” value stood at 5.11 µg/mL. Also, the “Fibrinolytic Activity” value in assay [2] is recorded as “+ (45 minutes (symbol: +) incubation)”.

For the compound `CCCCCCCCCCCC(=O)OC(CCCCCCCCCCC)CC(=O)NCC(=O)N[C@@H](CO)C(=O)O` (stereo partly drawn) [Example 3, N-[N-(3-dodecanoyloxytetradecanoyl)glycyl]-L-serine], the “Anticomplementary Activity (IC50)” value in assay [1] amounted to 0.12 µg/mL.

`CC(C)CCCCCCCCCCCC(=O)OC(CCCCCCCCCCCC(C)C)CC(=O)NCCC(=O)N[C@@H](CO)C(=O)O` (stereo partly drawn) [Example 9, N-[N-[15-methyl-3-(13-methyltetradecanoyloxy)hexadecanoyl]-β-alanyl]-L-serine]: the “Anticomplementary Activity (IC50)” value in assay [1] was 0.1 µg/mL. For the same compound, the “Fibrinolytic Activity” value in assay [2] was “+ (45 minutes (symbol: +) incubation)”.

Take `CCCCCCCCCCCCCCCC(=O)OC(CCCCCCCCCCCCCCC)CC(=O)NCCC(=O)N[C@H](C(=O)O)[C@@H](C)O` (stereo partly drawn) [Example 7, N-[N-(3-hexadecanoyloxyoctadecanoyl)-β-alanyl]-L-threonine]: in assay [1], the “Anticomplementary Activity (IC50)” value was in the range of 0.02 to 0.03 µg/mL.

On to `CCCCCCCCCCCCCCCC(=O)OC(CCCCCCCCCCCCCCC)CC(=O)NCCC(=O)N[C@@H](Cc1ccccc1)C(=O)O` (stereo partly drawn) [Example 32, N-[N-(3-hexadecanoyloxyoctadecanoyl)-β-alanyl]-L-phenylalanine], for which the “Anticomplementary Activity (IC50)” value in assay [1] amounted to 1.32 µg/mL. Besides, the “Fibrinolytic Activity” value in assay [2] is reported as “++ (blood clot was lysed in the presence of test compounds after 15 minutes (symbol: ++))”.

On to `CCCCCCCCCCCCCCCC(=O)OC(CCCCCCCCCCCCCCC)CC(=O)N[C@@H](Cc1ccccc1)C(=O)O` (stereo partly drawn) [Example 26, N-(3-hexadecanoyloxyoctadecanoyl)-L-phenylalanine], for which the “Anticomplementary Activity (IC50)” value in assay [1] was 3.5 µg/mL. The “Fibrinolytic Activity” value in assay [2] is listed as “+ (45 minutes (symbol: +) incubation)”.

For `CCCCCCCCCCCCCCCC(=O)OC(CCCCCCCCCCCCCCC)CC(=O)NCCC(=O)N[C@@H](CO)C(=O)O` (stereo partly drawn) [Example 10, N-[N-(3-hexadecanoyloxyoctadecanoyl)-β-alanyl]-L-serine], in assay [1], the “Anticomplementary Activity (IC50)” value lay in the range of 0.03 to 0.04 µg/mL.

Take `CCCCCCCCCCCCCCCC(=O)OC(CCCCCCCCCCCCCCC)CC(=O)N[C@H](C(=O)N[C@H](C(=O)O)[C@@H](C)O)C(C)C` (stereo partly drawn) [Example 29, N-[N-(3-hexadecanoyloxyoctadecanoyl)-L-valyl]-L-threonine]: the “Anticomplementary Activity (IC50)” value in assay [1] amounted to 0.59 µg/mL.

In the case of `CC(C)CCCCCCCCCCCC(=O)OC(CCCCCCCCCCCC(C)C)CC(=O)N[C@@H](C)C(=O)N[C@@H](CO)C(=O)O` (stereo partly drawn) [Example 12, N-[N-[15-methyl-3-(13-methyltetradecanoyloxy)hexadecanoyl]L-alanyl]-L-serine], in assay [1], the “Anticomplementary Activity (IC50)” value worked out at 0.59 µg/mL.

As for `CC(C)CCCCCCCCCCCC(=O)OC(CCCCCCCCCCCC(C)C)CC(=O)NCC(=O)N[C@@H](CO)C(=O)O` (stereo partly drawn) [Example 1, N-[N-[15-methyl-3-(13-methyltetradecanoyloxy)hexadecanoyl]glycyl]-L-serine], the “Anticomplementary Activity (IC50)” value in assay [1] came out at 1.0 µg/mL.

Turning to `CCCCCCCCCCCCCCCC(=O)OC(CCCCC)CC(=O)NCC(=O)N[C@@H](CO)C(=O)O` (stereo partly drawn) [Example 4, N-[N-(3-hexadecanoyloxyoctanoyl)glycyl]-L-serine], the “Anticomplementary Activity (IC50)” value in assay [1] was determined as 1.1 µg/mL.

These data come from US4436726A, “N-Acylpeptide compound, processes for the preparation thereof and the pharmaceutical compositions” (Fujisawa Pharmaceutical Co., Ltd., priority 1980, dated 1984).
